The numbers were not newly measured in patent US12590059B2, “Process for the production of levetiracetam” (Suzhou BrightHope Pharmatech Co., Ltd, priority 2023, dated 2026), which cites them from elsewhere.

The conditions of this data set: stated as known.

For the molecule `CC[C@@H](C(N)=O)N1CCCC1=O` [Levetiracetam], the solubility in water entry is “about 100 g/100 mL water”.
